Read-outs that look alike come from different tables or passages of the source.
Molecular target: T1, P70S6K (T412E mutant, Millipore) (Homo sapiens, UniProt P23443, T412E)
T1 construct: purchased Millipore
Assay: p70S6K enzyme assay
Assay type: biochemical
Details: 3 nM P70S6K, 24 μM ATP
Procedure, shortened: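 T412E-mutant P70S6K (3 nM) with 24 μM ATP and 1 μM FITC-AHA-AKRRRLSSLRA-OH S6-derived peptide in 100 mM Hepes pH 7.5, 5 mM MgCl2, 1 mM DTT, 0.015% Brij; 90 min at 25° C, EDTA stop. Phosphorylated product and substrate peptide separated and quantified by microfluidic capillary electrophoresis (Caliper LabChip 3000).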

[1] = class symbol, read-out: IC50 (p70S6K)
[2] = Table 1, 90 min at 25° C., read-out: p70S6K inhibition (IC50)

T1 sequence (P23443 whole entry T412E): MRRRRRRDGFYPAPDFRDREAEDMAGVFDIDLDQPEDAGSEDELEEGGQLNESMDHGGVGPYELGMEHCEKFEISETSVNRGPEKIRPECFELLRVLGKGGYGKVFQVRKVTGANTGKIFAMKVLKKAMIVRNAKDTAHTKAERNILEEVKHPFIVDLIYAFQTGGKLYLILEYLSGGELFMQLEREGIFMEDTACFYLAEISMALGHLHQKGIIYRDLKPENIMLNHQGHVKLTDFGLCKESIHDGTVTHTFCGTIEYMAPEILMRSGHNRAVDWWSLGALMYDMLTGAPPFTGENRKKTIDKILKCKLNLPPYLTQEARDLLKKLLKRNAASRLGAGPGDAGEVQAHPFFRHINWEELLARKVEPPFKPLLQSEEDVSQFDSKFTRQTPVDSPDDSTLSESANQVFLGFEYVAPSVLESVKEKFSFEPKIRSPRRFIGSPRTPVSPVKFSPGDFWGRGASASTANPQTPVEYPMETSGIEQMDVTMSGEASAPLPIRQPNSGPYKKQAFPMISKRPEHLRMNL

IC50 [1] [nM] | IC50 [2] [nM] | SMILES
100 to 1000 | – | CC(C)[C@@H](CO)NC(=O)c1sccc1Nc1ccnc2[nH]ccc12 [Example 96, 3-(1H-Pyrrolo[2,3-b]pyridin-4-ylamino)-thiophene-2-carboxylic acid ((S)-1-hydroxymethyl-2-methyl-propyl)-amide]
1000 to 10000 | – | O=C(N[C@@H](CO)Cc1ccccc1)c1sccc1Nc1ccnc2[nH]ccc12 [Example 81, 3-(1H-Pyrrolo[2,3-b]pyridin-4-ylamino)-thiophene-2-carboxylic acid ((R)-1-benzyl-2-hydroxy-ethyl)-amide]
100 to 1000 | – | CC(C)(C)OC(=O)N1CCC[C@@H]1CNC(=O)c1sccc1Nc1ccnc2[nH]ccc12 [Example 92, (R)-2-({[3-(1H-Pyrrolo[2,3-b]pyridin-4-ylamino)-thiophene-2-carbonyl]-amino}methyl)pyrrolidine-1-carboxylic acid tert-butyl ester]
< 100 | – | O=C(NCCNCc1ccc(OC(F)(F)F)cc1)c1sccc1Nc1ccnc2[nH]ccc12 [Example 51, 3-(1H-Pyrrolo[2,3-b]pyridin-4-ylamino)-thiophene-2-carboxylic acid [2-(4-trifluoromethoxy-benzylamino)-ethyl]-amide]
– | < 100 | O=C(NCCc1cccc(Cl)c1)c1sccc1Nc1ncnc2[nH]ccc12 [Example 144, 3-(7H-Pyrrolo[2,3-d]pyrimidin-4-ylamino)-thiophene-2-carboxylic acid [2-(3-chloro-phenyl)-ethyl]-amide]
– | < 100 | O=C(NCCc1ccc(F)cc1)c1sccc1Nc1ncnc2[nH]ccc12 [Example 145, 3-(7H-Pyrrolo[2,3-d]pyrimidin-4-ylamino)-thiophene-2-carboxylic acid [2-(4-fluoro-phenyl)-ethyl]-amide]
< 100 | – | O=C(NCCc1ccccc1)c1sccc1Nc1ncnc2[nH]ccc12 [Example 174, 3-(7H-Pyrrolo[2,3-d]pyrimidin-4-ylamino)-thiophene-2-carboxylic acid phenethylamide]
100 to 1000 | – | COc1cccc(NC(=O)c2sccc2Nc2ccnc3[nH]ccc23)c1 [Example 39, 3-(1H-Pyrrolo[2,3-b]pyridin-4-ylamino)-thiophene-2-carboxylic acid (3-methoxy-phenyl)-amide]
100 to 1000 | – | O=C(NCc1cn(Cc2ccccc2)nn1)c1sccc1Nc1ccnc2[nH]ccc12 [Example 101, 3-(1H-Pyrrolo[2,3-b]pyridin-4-ylamino)-thiophene-2-carboxylic acid (1-benzyl-1H-[1,2,3]triazol-4-ylmethyl)-amide]
< 100 | – | O=C(NCCNCc1ccccc1F)c1sccc1Nc1ccnc2[nH]ccc12 [Example 58, 3-(1H-Pyrrolo[2,3-b]pyridin-4-ylamino)-thiophene-2-carboxylic acid [2-(2-fluoro-benzylamino)-ethyl]-amide]
< 100 | – | O=C(NCc1ccccc1)c1ccsc1Nc1ccnc2[nH]ccc12 [Example 112, 2-(1H-Pyrrolo[2,3-b]pyridin-4-ylamino)-thiophene-3-carboxylic acid benzylamide]
< 100 | – | O=C(Nc1ccc(F)cc1)c1sccc1Nc1ccnc2[nH]ccc12 [Example 37, 3-(1H-Pyrrolo[2,3-b]pyridin-4-ylamino)-thiophene-2-carboxylic acid (4-fluoro-phenyl)-amide]
1000 to 10000 | – | O=C(N[C@@H](CO)[C@@H](O)c1ccccc1)c1sccc1Nc1ccnc2[nH]ccc12 [Example 84, 3-(1H-Pyrrolo[2,3-b]pyridin-4-ylamino)-thiophene-2-carboxylic acid ((1S,2S)-2-hydroxy-1-hydroxymethyl-2-phenyl-ethyl)-amide]
< 100 | – | NS(=O)(=O)c1ccc(CCNC(=O)c2sccc2Nc2ccnc3[nH]ccc23)cc1 [Example 14, 3-(1H-Pyrrolo[2,3-b]pyridin-4-ylamino)-thiophene-2-carboxylic acid [2-(4-sulfamoyl-phenyl)-ethyl]-amide]
< 100 | – | Cc1cccc(CNCCNC(=O)c2sccc2Nc2ccnc3[nH]ccc23)c1 [Example 56, 3-(1H-Pyrrolo[2,3-b]pyridin-4-ylamino)-thiophene-2-carboxylic acid [2-(3-methyl-benzylamino)-ethyl]-amide]
< 100 | – | O=C(Nc1cccc(CNC(=O)c2sccc2Nc2ccnc3[nH]ccc23)c1)c1ccnc(N2CCOCC2)c1 [Example 164, 2-Morpholin-4-yl-N-[3-({[3-(1H-pyrrolo[2,3-b]pyridin-4-ylamino)-thiophene-2-carbonyl]-amino}-methyl)-phenyl]-isonicotinamide]
< 100 | – | O=C(NCCNCc1ccc2[nH]ccc2c1)c1sccc1Nc1ccnc2[nH]ccc12 [Example 59, 3-(1H-Pyrrolo[2,3-b]pyridin-4-ylamino)-thiophene-2-carboxylic acid {2-[(1H-indol-5-ylmethyl)-amino]-ethyl}-amide]

More lines, now with the values behind:

SMILES | IC50 [1] [nM] | IC50 [2] [nM]
O=C(N[C@@H](CO)Cc1ccccc1)c1ccsc1Nc1ccnc2[nH]ccc12 [Example 119, 2-(1H-Pyrrolo[2,3-b]pyridin-4-ylamino)-thiophene-3-carboxylic acid ((R)-1-hydroxymethyl-2-phenyl-ethyl)-amide] | 100 to 1000 | –
O=C(NCCc1ccc(F)cc1)c1sccc1Nc1ccnc2[nH]ccc12 [Example 23, 3-(1H-Pyrrolo[2,3-b]pyridin-4-ylamino)-thiophene-2-carboxylic acid [2-(4-fluoro-phenyl)-ethyl]-amide] | < 100 | –
O=C(NCCc1cccc(F)c1)c1sccc1Nc1ncnc2[nH]ccc12 [Example 142, 3-(7H-Pyrrolo[2,3-d]pyrimidin-4-ylamino)-thiophene-2-carboxylic acid [2-(3-fluoro-phenyl)-ethyl]-amide] | – | < 100
COc1ccccc1C(CN)NC(=O)c1ccsc1Nc1ccnc2[nH]ccc12 (stereo not drawn) [Example 109, 2-(1H-Pyrrolo[2,3-b]pyridin-4-ylamino)-thiophene-3-carboxylic acid [2-amino-1-(2-methoxy-phenyl)-ethyl]-amide] | < 100 | –
O=C(N[C@H](CO)Cc1ccccc1)c1sccc1Nc1ccnc2[nH]ccc12 [Example 86, 3-(1H-Pyrrolo[2,3-b]pyridin-4-ylamino)-thiophene-2-carboxylic acid ((S)-1-benzyl-2-hydroxy-ethyl)-amide] | < 100 | –
COc1ccc(CNCCNC(=O)c2sccc2Nc2ccnc3[nH]ccc23)cc1 [Example 40, 3-(1H-Pyrrolo[2,3-b]pyridin-4-ylamino)-thiophene-2-carboxylic acid [2-(4-methoxy-benzylamino)-ethyl]-amide] | < 100 | –
O=C(NCCOCc1ccccc1)c1sccc1Nc1ccnc2[nH]ccc12 [Example 68, 3-(1H-Pyrrolo[2,3-b]pyridin-4-ylamino)-thiophene-2-carboxylic acid (2-benzyloxy-ethyl)-amide] | < 100 | –
NC[C@@H](NC(=O)c1sccc1Nc1ccnc2[nH]ccc12)c1cccc(Cl)c1 (stereo in doubt) [Example 124, 3-(1H-Pyrrolo[2,3-b]pyridin-4-ylamino)-thiophene-2-carboxylic acid [2-amino-1-(3-chloro-phenyl)-ethyl]-amide] | < 100 | –
CCOC(=O)CCNC(=O)c1sccc1Nc1ccnc2[nH]ccc12 [Example 33, 3-{[3-(1H-Pyrrolo[2,3-b]pyridin-4-ylamino)-thiophene-2-carbonyl]-amino}-propionic acid ethyl ester] | 100 to 1000 | –
O=C(NCCc1ccc(F)cc1)c1sccc1Nc1ccnc2[nH]ccc12 [Example 150, 3-(1H-Pyrrolo[2,3-b]pyridin-4-ylamino)-thiophene-2-carboxylic acid [2-(4-fluoro-phenyl)-ethyl]-amide] | – | < 100
O=C(NCc1ccccn1)c1sccc1Nc1ccnc2[nH]ccc12 [Example 7, 3-(1H-Pyrrolo[2,3-b]pyridin-4-ylamino)-thiophene-2-carboxylic acid (pyridin-2-ylmethyl)-amide] | 100 to 1000 | –
NC(CNC(=O)c1sccc1Nc1ccnc2[nH]ccc12)c1ccccc1 (stereo not drawn) [Example 78, 3-(1H-Pyrrolo[2,3-b]pyridin-4-ylamino)-thiophene-2-carboxylic acid (2-amino-2-phenyl-ethyl)-amide] | < 100 | –
Cc1ccccc1CCNC(=O)c1sccc1Nc1ncnc2[nH]ccc12 [Example 181, 3-(7H-Pyrrolo[2,3-d]pyrimidin-4-ylamino)-thiophene-2-carboxylic acid (2-o-tolyl-ethyl)-amide] | < 100 | –
O=C(NC1CCNC1)c1ccsc1Nc1ccnc2[nH]ccc12 (stereo not drawn) [Example 103, 2-(1H-Pyrrolo[2,3-b]pyridin-4-ylamino)-thiophene-3-carboxylic acid pyrrolidin-3-ylamide] | < 100 | –
Cc1ccccc1CCNC(=O)c1sccc1Nc1ncnc2[nH]ccc12 [Example 147, 3-(7H-Pyrrolo[2,3-d]pyrimidin-4-ylamino)-thiophene-2-carboxylic acid [2-o-tolyl-ethyl)-amide] | – | < 100
COc1ccccc1C(CN)NC(=O)c1sccc1Nc1ccnc2[nH]ccc12 (stereo not drawn) [Example 107, 3-(1H-Pyrrolo[2,3-b]pyridin-4-ylamino)-thiophene-2-carboxylic acid [2-amino-1-(2-methoxy-phenyl)-ethyl]-amide] | < 100 | –
COc1cccc(CNCCNC(=O)c2sccc2Nc2ccnc3[nH]ccc23)c1 [Example 49, 3-(1H-Pyrrolo[2,3-b]pyridin-4-ylamino)-thiophene-2-carboxylic acid [2-(3-methoxy-benzylamino)-ethyl]-amide] | < 100 | –
O=C(NCCc1cccc(F)c1)c1sccc1Nc1ccnc2[nH]ccc12 [Example 22, 3-(1H-Pyrrolo[2,3-b]pyridin-4-ylamino)-thiophene-2-carboxylic acid [2-(3-fluoro-phenyl)-ethyl]-amide] | < 100 | –
O=C(N[C@@H](CO)c1ccccc1)c1sccc1Nc1ccnc2[nH]ccc12 [Example 43, R-[3-(1H-Pyrrolo[2,3-b]pyridin-4-ylamino)-thiophene-2-carboxylic acid (2-hydroxy-1-phenyl-ethyl)-amide]] | 1000 to 10000 | –

Reference: patent US9023847B2, “Azaheterocyclic compounds” (Merck Patent GmbH, priority 2009, dated 2015)
